Assay results taken from PMC12082625, “Redox-State-Dependent Structural Changes within a Prokaryotic 6–4 Photolyase” (Journal of the American Chemical Society, 2025).

Experiments:
Type in all cases: binding
Cc(6–4)PL [1] = target: T1, Cc(6–4)PL (Caulobacter vibrioides, UniProt Q9AAF5); assay: XFEL serial femtosecond crystallography; conditions: dark-adapted oxidized state, room temperature; N-terminal antenna site; co-purified cofactor
T1 construct: gene CC_0646; pET28-based, nickel-NTA purified (His-tagged by implication) from E. coli BL21(DE3); model spans M1-S508; contains FAD, DLZ and [4Fe-4S] cluster
T1 sequence (Q9AAF5 1-509): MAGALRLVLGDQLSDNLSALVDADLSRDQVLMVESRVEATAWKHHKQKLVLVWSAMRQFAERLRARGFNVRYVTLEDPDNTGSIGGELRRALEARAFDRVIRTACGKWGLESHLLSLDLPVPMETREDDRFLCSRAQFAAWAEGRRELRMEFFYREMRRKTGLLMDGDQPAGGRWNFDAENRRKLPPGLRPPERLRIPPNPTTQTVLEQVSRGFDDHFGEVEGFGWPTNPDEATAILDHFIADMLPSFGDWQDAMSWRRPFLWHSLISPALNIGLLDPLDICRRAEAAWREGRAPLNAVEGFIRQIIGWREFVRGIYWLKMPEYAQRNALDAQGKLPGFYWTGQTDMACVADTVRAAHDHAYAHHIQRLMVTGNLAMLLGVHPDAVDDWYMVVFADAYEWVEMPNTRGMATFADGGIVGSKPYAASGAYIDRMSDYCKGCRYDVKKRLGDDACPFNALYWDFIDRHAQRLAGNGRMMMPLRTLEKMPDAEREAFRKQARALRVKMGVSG

Cc(6–4)PL [2] = target: T2, Cc(6–4)PL (Caulobacter vibrioides, UniProt Q9AAF5, K48A); assay: X-ray crystal structure (synchrotron, […] Å); UV/vis spectroscopy; conditions: antenna site; occupancy in crystal, not an affinity
T2 construct: gene CC_0646; pET28-based, nickel-NTA purified (His-tagged by implication) from E. coli BL21(DE3); model spans M1-S508; contains FAD, DLZ and [4Fe-4S] cluster

Cc(6–4)PL [3] = target: T1, Cc(6–4)PL; assay: XFEL serial femtosecond crystallography; in crystallo UV-vis; conditions: photoreduced in crystals, 50 mM DTT, anaerobic, 30 min white light and blue LED; catalytic FAD site
Cc(6–4)PL [4] = target: T1, Cc(6–4)PL; assay: XFEL serial femtosecond crystallography and synchrotron crystal structures; conditions: dark-adapted oxidized state, room temperature; catalytic FAD site; co-purified cofactor

T2 sequence (Q9AAF5 entry or part of it K48A): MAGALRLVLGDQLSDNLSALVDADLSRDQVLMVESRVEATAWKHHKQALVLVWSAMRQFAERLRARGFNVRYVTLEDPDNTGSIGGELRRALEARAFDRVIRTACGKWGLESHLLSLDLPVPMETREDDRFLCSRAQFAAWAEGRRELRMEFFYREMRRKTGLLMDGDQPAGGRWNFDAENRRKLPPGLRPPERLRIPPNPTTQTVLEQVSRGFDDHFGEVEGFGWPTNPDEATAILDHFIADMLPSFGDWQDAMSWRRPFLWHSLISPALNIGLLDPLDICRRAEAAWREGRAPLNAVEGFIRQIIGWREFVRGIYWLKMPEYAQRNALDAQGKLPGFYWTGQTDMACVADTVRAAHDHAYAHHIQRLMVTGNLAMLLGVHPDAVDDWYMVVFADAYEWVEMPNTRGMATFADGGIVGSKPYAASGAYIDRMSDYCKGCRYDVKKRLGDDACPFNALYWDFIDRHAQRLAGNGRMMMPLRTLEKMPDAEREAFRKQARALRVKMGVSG

With `Cc1nc2c(=O)[nH]c(=O)nc-2n(C[C@H](O)[C@H](O)[C@H](O)CO)c1C` [DLZ] as the compound, how does the “XFEL serial femtosecond crystallography” value (Cc(6–4)PL [1]) read?
Its value is “Structural analysis reveals an intricate DLZ binding pocket with interactions involving several key residues”.

And the occupancy (Cc(6–4)PL [2])?
The occupancy was ~ 50%.

How did the “XFEL serial femtosecond crystallography; in crystallo UV-vis” value (Cc(6–4)PL [3]) turn out when `Cc1cc2c(cc1C)N(C[C@H](O)[C@H](O)[C@H](O)COP(=O)(O)OP(=O)(O)OC[C@H]1O[C@@H](n3cnc4c(N)ncnc43)[C@H](O)[C@@H]1O)c1[nH]c(=O)[nH]c(=O)c1N2` [FADH–] was run?
Its value is “structural changes occurred in the FAD binding site compared to the FADox state”.

For `Cc1cc2nc3c(=O)[nH]c(=O)nc-3n(C[C@H](O)[C@H](O)[C@H](O)COP(=O)(O)OP(=O)(O)OC[C@H]3O[C@@H](n4cnc5c(N)ncnc54)[C@H](O)[C@@H]3O)c2cc1C` [FADox], which “XFEL serial femtosecond crystallography and synchrotron crystal structures” value (Cc(6–4)PL [4]) is on record?
The value was “the damage-free structures reveal FAD’s binding arrangement with its isoalloxazine moiety engaging key amino acid residues”.
